Where only a bound is given, the exact number is not on record here.

The target in assay [1] is T1, HIV-1 protease (Q7S mutant form) (Human immunodeficiency virus type 1 group M subtype B, UniProt P04585, Q495S).
T1 construct: made in house
Kind of assay: HIV-1 Protease RET assay. It is filed as biochemical. Conditions: Ave. Ki (nM), RET assay, Q7S enzyme, Morrison tight binding fit. In outline: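 Ki values fitted with the Morrison tight-binding equation from steady-state RET cleavage (ex 340, em 490 nm) of 5 μM RE(EDANS)SQNYPIVQK(DABCYL)R. Buffer pH 4.8 acetate, 1M NaCl, 5 mM DTT, 1 mg/ml BSA, 10% DMSO; 2 nM Q7S mutant dimer, 37 °C, 12 min.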

In assay [2] the test system is HIV-1 (HIV-1 RF, HIV-1 NL4-3) in CEM-SS / MT-2 cells. Kind of assay: Cytopathic effect (CPE) inhibition assay (XTT/MTT dye reduction). It counts as cell-based. The settings on record: Human immunodeficiency virus 1, NL43; read-out: Ave CPE EC50. As to the method:
T-cell lines, CEM-SS, and MT-2, and viruses HIV-1 RF and HIV-1 NL4-3 (pNL4-3) were obtained from the National Institutes of Health (AIDS Research and Reference Reagent Program, Bethesda, Md.).
Cytopathic Effect (CPE) Inhibition Assays
The ability of compounds to protect cells against HIV infection was measured by the […] dye reduction method, essentially as described (See Pauwels, R. Balzarini, J. Baba, M. Snoeck, R. Schols, D. Herdewijn, P. Desmyter, J. and De Clercq, E. 1988, “Rapid and automated tetrazolium-based colorimetric assay for the detection of anti-HIV compounds,”. J Virol. Methods., 20: 309–321 and Weislow, O. S. Kiser, R. Fine, D. L. Bader, J. Shoemaker, R. H. and Boyd, M. R. 1989. “New soluble-formazan assay for HIV-1 cytopathic effects: application to high-flux screening of synthetic and natural products for AIDS-antiviral activity”. J. Natl. Cancer Inst. 81:577–586). Subject cells were infected with test virus at an moi of 0.025 to 0.819 or mock infected with medium only and added at 2×10^4 cells per well into 96 well plates containing half-log dilutions of test compounds. Six days later, 50 μl of XTT (1 mg/ml XTT tetrazolium, 0.02 nM phenazine methosulfate) was added to the wells and the plate was reincubated for four hours. Viability, as determined by the amount of XTT formazan produced, was quantified spectrophotometrically by absorbance at 450 nm. Data from CPE assays were expressed as the percent of formazan produced in compound-treated cells compared to formazan produced in wells of uninfected, compound-free cells. The fifty percent effective concentration (EC50) was calculated as the concentration of compound that effected an increase in the percentage of formazan production in infected, compound-treated cells to 50% of that produced by uninfected, compound-free cells. The 50% cytotoxicity concentration (CC50) was calculated as the concentration of compound that decreased the percentage of formazan produced in uninfected, compound-treated cells to 50% of that produced in uninfected, compound-free cells. The therapeutic index was calculated by dividing the cytotoxicity (CC50) by the antiviral activity (EC50).
(In general: Cytopathic effects are the visible damage that an infection or toxin causes in cultured cells.)

As for `Cc1c(O)cccc1C(=O)N[C@@H](Cc1ccccc1)[C@H](O)C(=O)N1CSC(C)(C)[C@H]1C(=O)NC1CC1c1ccccc1` (mixture of isomers) [Example A28, (R)-3-((2S,3S)-2-Hydroxy-3-{[1-(3-hydroxy-2-methyl-phenyl)-methanoyl]-amino}-4-phenyl-butanoyl)-5,5-dimethyl-thiazolidine-4-carboxylic acid (2-phenyl-cyclopropyl)-amide], the Ki in assay [1] stood at 3.4 nM. Moreover, in assay [2], the EC50 came out at 327 nM.
In the case of `Cc1c(O)cccc1C(=O)N[C@@H](Cc1ccccc1)[C@H](O)C(=O)N1CSC(C)(C)[C@H]1C(=O)NCc1ccccn1` [Example A3, (R)-3-((2S,3S)-2-Hydroxy-3-{[1-(3-hydroxy-2-methyl-phenyl)-methanoyl]-amino}-4phenyl-butanoyl)-5,5-dimethyl-thiazolidine-4-carboxylic acid (pyridin-2-ylmethyl)-amide], in assay [1], the affinity corresponds to a Ki of 0.51 nM. For the same molecule, in assay [2], the EC50 came out at 156 nM.
For `Cc1c(O)cccc1C(=O)N[C@@H](Cc1ccccc1)[C@H](O)C(=O)N1CSC(C)(C)[C@H]1C(=O)NCc1cccnc1` [Example A5, (R)-3-((2S,3S)-2-Hydroxy-3-{[1-(3-hydroxy-2-methyl-phenyl)-methanoyl]-amino}-4-phenyl-butanoyl)-5,5-dimethyl-thiazolidine-4-carboxylic acid (pyridin-3-ylmethyl)-amide] the same measures were 0.2 nM and 148 nM.
In assay [1], `Cc1c(O)cccc1C(=O)N[C@@H](Cc1ccccc1)[C@H](O)C(=O)N1CSC(C)(C)[C@H]1C(=O)NCc1ccncc1` [Example A8, (R)-3-((2S,3S)-2-Hydroxy-3-{[1l-(3-hydroxy-2-methyl-phenyl)-methanoyl]-amino}-4-phenyl-butanoyl)-5,5-dimethyl-thiazolidine-4-carboxylic acid (pyridin-4-ylmethyl)-amide] came in with a Ki of 1.4 nM. Further, the EC50 in assay [2] is 451 nM.
Molecule `Cc1c(O)cccc1C(=O)N[C@@H](Cc1ccccc1)[C@H](O)C(=O)N1CSC(C)(C)[C@H]1C(=O)NCc1cccc2ccccc12` [Example A11, (R)-3-((2S,3S)-2-Hydroxy-3-{[1-(3-hydroxy-2-methyl-phenyl)-methanoyl]-amino}-4-phenyl-butanoyl)-5,5-dimethyl-thiazolidine-4-carboxylic acid (naphthalen-1-ylmethyl)-amide] showed a Ki in assay [1] of 0.5 nM. Further, in assay [2], the EC50 worked out at 144 nM.
For `Cc1c(O)cccc1C(=O)N[C@@H](Cc1ccccc1)[C@H](O)C(=O)N1CSC(C)(C)[C@H]1C(=O)NCc1csc2ccc(Cl)cc12` [Example A24, (R)-3-((2S,3S)-2-Hydroxy-3-{[1-(3-hydroxy-2-methyl-phenyl)-methanoyl]-amino}-4-phenyl-butanoyl)-5,5-dimethyl-thiazolidine-4-carboxylic acid (5-chloro-benzo[b]thiophen-3-ylmethyl)-amide] the same measures were 0.52 nM and 466 nM.
For `Cc1c(O)cccc1C(=O)N[C@@H](Cc1ccccc1)[C@H](O)C(=O)N1CSC(C)(C)[C@H]1C(=O)NC1CC1` [Example A25, (R)-3-((2S,3S)-2-Hydroxy-3-{[1-(3-hydroxy-2-methyl-phenyl)-methanoyl]-amino}-4-phenyl-butanoyl)-5,5-dimethyl-thiazolidine-4-carboxylic acid cyclopropylamide] the same measures were 0.97 nM and 125 nM.
For `Cc1c(O)cccc1C(=O)N[C@@H](Cc1ccccc1)[C@H](O)C(=O)N1CSC(C)(C)[C@H]1C(=O)NC1CCC1` [Example A26, (R)-3-((2S,3S)-2-Hydroxy-3-{[1-(3-hydroxy-2-methyl-phenyl)-methanoyl]-amino}-4-phenyl-butanoyl)-5,5-dimethyl-thiazolidine-4-carboxylic acid cyclobutylamide] the same measures were 0.6 nM and 168 nM.
`Cc1c(O)cccc1C(=O)N[C@@H](Cc1ccccc1)[C@H](O)C(=O)N1CSC(C)(C)[C@H]1C(=O)NC1CCCC1` [Example A27, (R)-3-((2S,3S)-2-Hydroxy-3-{[1-(3-hydroxy-2-methyl-phenyl)-methanoyl]-amino}-4-phenyl-butanoyl)-5,5-dimethyl-thiazolidine-4-carboxylic acid cyclopentylamide] displayed a Ki in assay [1] below 0.1 nM. Besides, in assay [2], the EC50 worked out at 110 nM.
For `Cc1c(O)cccc1C(=O)N[C@@H](Cc1ccccc1)[C@H](O)C(=O)N1CSC(C)(C)[C@H]1C(=O)N1CCOCC1` [Example A30] the same measures were 10.9 nM and 586 nM.
For `Cc1c(O)cccc1C(=O)N[C@@H](Cc1ccccc1)[C@H](O)C(=O)N1CSC(C)(C)[C@H]1C(=O)NC1CCCCCC1` [Example A31, (R)-3-((2S,3S)-2-Hydroxy-3-{[1-(3-hydroxy-2-methyl-phenyl)-methanoyl]-amino}-4-phenyl-butanoyl)-5,5-dimethyl-thiazolidine-4-carboxylic acid cycloheptylamide] the same measures were 0.44 nM and 62 nM.
For `Cc1c(O)cccc1C(=O)N[C@@H](Cc1ccccc1)[C@H](O)C(=O)N1CSC(C)(C)[C@H]1C(=O)N1CCSCC1` [Example A33, N-{(1S,2S)-1-Benzyl-3-[(R)-5,5-dimethyl-4-(1-thiomorpholin-4-yl-methanoyl)-thiazolidin-3-yl]-2-hydroxy-3-oxo-propyl}-3-hydroxy-2-methyl-benzamide] the same measures were 5.1 nM and 749 nM.
For the molecule `Cc1c(O)cccc1C(=O)N[C@@H](Cc1ccccc1)[C@H](O)C(=O)N1CSC(C)(C)[C@H]1C(=O)N1CCCCC1` [Example A34, N-{(1S,2S)-1-Benzyl-3-[(R)-5,5-dimethyl-4-(1-piperidin-1-yl-methanoyl)-thiazolidin-3-yl]-2-hydroxy-3-oxo-propyl}-3-hydroxy-2-methyl-benzamide], affinity in assay [1] was put at a Ki of 1.4 nM. For the same molecule, in assay [2], the EC50 came to 386 nM.
For `Cc1c(O)cccc1C(=O)N[C@@H](Cc1ccccc1)[C@H](O)C(=O)N1CSC(C)(C)[C@H]1C(=O)NC[C@@H]1CCCO1` [Example A37, (R)-3-((2S,3S)-2-Hydroxy-3-{[1-(3-hydroxy-2-methyl-phenyl)-methanoyl]-amino}-4-phenyl-butanoyl)-5,5-dimethyl-thiazolidine-4-carboxylic acid (tetrahydro-furan-2-ylmethyl)-amide] the same measures were 3.7 nM and 416 nM.
For `Cc1c(O)cccc1C(=O)N[C@@H](Cc1ccccc1)[C@H](O)C(=O)N1CSC(C)(C)[C@H]1C(=O)N[C@@H]1CCCc2ncccc21` [Example A43, 3-[2-Hydroxy-3-(3-hydroxy-2-methyl-benzoylamino)-4-phenyl-butyryl]-5,5-dimethyl-thiazolidine-4-carboxylic acid (5,6,7,8-tetrahydro-quinolin-5-yl)-amide], in assay [1], the affinity, expressed as Ki, was 2.6 nM. In addition, the EC50 in assay [2] came to 534 nM.
For `Cc1c(O)cccc1C(=O)N[C@@H](Cc1ccccc1)[C@H](O)C(=O)N1CSC(C)(C)[C@H]1C(=O)NCc1n[nH]c2ccccc12` [Example A44, 3-(2-Hydroxy-3-{[1-(3-hydroxy-2-methyl-phenyl)-methanoyl]-amino}-4-phenyl-butanoyl)-5,5-dimethyl-thiazolidine-4-carboxylic acid (1H-indazol-3-ylmethyl)-amide] the same measures were 1.4 nM and 478 nM.
For `Cc1c(O)cccc1C(=O)N[C@@H](Cc1ccccc1)[C@H](O)C(=O)N1CSC(C)(C)[C@H]1C(=O)NCC1CCOC1` (stereo partly drawn) [Example A46, (R)-3-((2S,3S)-2-Hydroxy-3-{[1-(3-hydroxy-2-methyl-phenyl)-methanoyl]-amino}-4-phenyl-butanoyl)-5,5-dimethyl-thiazolidine-4-carboxylic acid (tetrahydro-furan-3-ylmethyl)-amide] the same measures were 1.1 nM and 469 nM.
For `Cc1c(O)cccc1C(=O)N[C@@H](Cc1ccccc1)[C@H](O)C(=O)N1CSC(C)(C)[C@H]1C(=O)N[C@@H]1CCCc2occc21` [Example A47, 3-[2-Hydroxy-3-(3-hydroxy-2-methyl-benzoylamino)-4-phenyl-butyryl]-5,5-dimethyl-thiazolidine-4-carboxylic acid (4,5,6,7-tetrahydro-benzofuran-4-yl)-amide] the same measures were 0.27 nM and 196 nM.

Broadly, the Ki is the dissociation constant of the complex between target and ligand, obtained from inhibition or displacement. A higher Ki goes with a looser hold on the target. For orientation: EC50 means the concentration needed to bring the measured effect to its halfway point.

Source of the values: patent US7094909B2, “HIV protease inhibitors, compositions containing the same, their pharmaceutical uses and materials for their synthesis” (priority 2001, dated 2006).
